Results on 18 substances are retold here after US11104700B2, “Oligonucleotides” (OXFORD UNIVERSITY INNOVATION LIMITED, priority 2017, dated 2021).

Series [1] has as its system DNA target: 5′-dGCT GCA AGC GTC G (SEQ ID NO: 33). The experiment in a line: UV thermal melting, single triazole linkage (MeC-T step), DNA target. Format: binding.
Series [2] concerns RNA target: 5′-rGCU GCA AGC GUC G (SEQ ID NO: 34). As to the kind of experiment: UV thermal melting, single triazole linkage (MeC-T step), RNA target. Format: binding.
The test system of series [3] is DNA target: 5′-dGCT GGA GAG GTC G (SEQ ID NO: 39). Format: binding. Conditions: for Tm, DNA target: pH 7.
Series [4] deals with DNA target; 5′-dGCT AGA GAA GTC G (SEQ ID NO: 37). The experiment in a line: UV thermal melting, two triazole linkages (MeC-T steps), DNA target. It counts as binding. Conditions: Table 6; for Tm, DNA target: 10 mM phosphate, 200 mM NaCl, pH 7.0, 3.0 μM each strand; for ΔTm/mod, DNA target: relative to unmodified ON7.
Series [5] concerns RNA target; 5′-rGCU AGA GAA GUC G (SEQ ID NO: 38). As to the kind of experiment: UV thermal melting, two triazole linkages (MeC-T steps), RNA target. Conditions: for Tm, RNA target / ΔTm/mod, RNA target: Table 6; for Tm, RNA target: 10 mM phosphate, 200 mM NaCl, pH 7.0, 3.0 μM each strand; for ΔTm/mod, RNA target: relative to unmodified ON7. Format: binding.
The test system of series [6] is RNA Target 3′-rGCUGCGMACGUCG (M = G, C, U). The experiment in a line: Mismatch discrimination against RNA targets containing a mismatch nucleotide (UV melting). Format: binding.
Series [7] concerns RNA target 5′-rGCU GCA GGC GUC G (SEQ ID NO: 24). Format: binding. The note with it: for Tm, RNA target: pH 7.
The test system of series [8] is DNA target 5′-dGCT GCA GGC GTC G (SEQ ID NO: 23). It counts as binding. Conditions: for Tm, DNA target: pH 7.
Series [9] has as its system Phosphodiesterase 1 from Crotalus adamanteus venom.
[10] abbreviates: Table 5, 10 mM phosphate, 200 mM NaCl, pH 7.0, 3.0 μM each strand.
Where [11] appears, read: change in Tm relative to the fully matched duplex (M = A).
[12] abbreviates: Table 3, fully matched duplex (M = A).

Read-outs that look alike come from different tables or passages of the source. In the oligonucleotide strings, read from the 5' end, every base follows the letter of its sugar. An asterisk marks phosphorothioate; unmarked linkages are phosphodiester. Other units and linkages are bracketed, terminal groups are in braces. A string of capitals states the bases alone. [tz] = triazole internucleoside linkage replacing phosphodiester; l = locked nucleic acid (LNA); [5mC] = 5-methylcytosine; d = 2'-deoxy (DNA)

For the substance 5′-dCGACG^MeC^LtT^LTGCAGC [ON6], the “ΔTm, DNA target (change in Tm relative to the unmodified duplex)” value in series [1] is given as -5.8. Further, the Tm, DNA target in series [1] (pH 7) was determined as 58.4 °C. Besides, in series [2], the “additional stabilising effect of LNA on the 5′-side of the triazole” value is “no significant additional stabilising effect” and the “ΔTm, RNA target (change in Tm relative to the unmodified duplex)” value is on record as “+0.1”. Also, the Tm, RNA target in [2] (pH 7) stood at 62.9 °C.

On to 5′-dCGA^MeCt^MeCTCT^MeCt^MeCAGC [ON14], for which, in series [3], the “ΔTm/mod, DNA target” value is recorded as -7.3 and the Tm, DNA target is 51.9 °C.

With “CGA^MeCTTCT^MeCTAGC (DNA dCdGdAd[5mC]dTdTdCdTd[5mC]dTdAdGdC) [ON7]”, in [4], the “Tm, DNA target” value was 57.1 °C. The “Tm, RNA target” value in [5] is 58.8 °C.

“5′-dCGACG^MeCtTTGCAGC (DNA dCdGdAdCdGd[5mC][tz]dTdTdGdCdAdGdC; further chemistry not given here) [ON3]”: in series [1] (setting [10]), the “Tm, DNA target” value worked out at 55.3 °C. For the same substance, in series [1] (Table 5, relative to ON1), the “ΔTm, DNA target (change in Tm relative to the unmodified duplex)” value was -8.9 °C. Moreover, in [6] (setting [11]), the “ΔTm, mismatch M = C” value was -16.1 °C; the “ΔTm, mismatch M = G” value was -2.2 °C; the “ΔTm, mismatch M = U” value was -12.9 °C. For the same substance, the “Tm, RNA target M = A” value in series [2] (setting [12]) came to 56.6 °C. Also, in [2] (setting [10]), the “Tm, RNA target” value is 56.6 °C. In addition, in series [2] (Table 5, relative to ON1), the “ΔTm, RNA target (change in Tm relative to the unmodified duplex)” value was -6.2 °C.

In the case of 5′-dCGACG^MeCt^MeCTGCAGC [ON12], in series [7], the “ΔTm, RNA target (relative to the unmodified duplex ON33)” value was -5.8 and the Tm, RNA target was found to be 63.4 °C. Further, in series [8], the “ΔTm, DNA target (relative to the unmodified duplex ON33)” value is recorded as -6.4 and the Tm, DNA target is 62 °C.

As to 5′-d CGACG^MeCp^MeCTGCAGC [ON33], the Tm, RNA target in series [7] turned out to be 69.1 °C. Moreover, the Tm, DNA target in series [8] amounted to 68.7 °C.

As for 5′-dCGACG^MeCtT^LTGCAGC [ON2], in [1], the “increase in thermal stability compared to the duplex containing only the triazole linkage” value came out at 2.9 and the “ΔTm, DNA target (change in Tm relative to the unmodified duplex)” value was −6.0. Moreover, in series [1] (pH 7), the Tm, DNA target worked out at 58.2 °C. Also, in series [6], the “ΔTm, mismatch M = C” value is listed as -15.6; the “ΔTm, mismatch M = G” value was -3.3; the “ΔTm, mismatch M = U” value was -13.4. Moreover, in [2], the Tm, RNA target M = A came out at 62 °C; the “increase in Tm relative to the duplex with only the triazole linkage” value amounted to 5.4; the “ΔTm, RNA target (change in Tm relative to the unmodified duplex)” value is listed as −0.8. The Tm, RNA target in series [2] (pH 7) turned out to be 62 °C.

On to “5′-dCGA^MeCtTTCT^MeCtTAGC (DNA dCdGdAd[5mC][tz]dTdTdCdTd[5mC][tz]dTdAdGdC; further chemistry not given here) [ON9]”, for which, in series [4], the “Tm, DNA target” value was 42.3 °C and the “ΔTm/mod, DNA target” value is -7.4 °C/modification. In series [5], the “Tm, RNA target” value was 47.1 °C and the “ΔTm/mod, RNA target” value is -5.8 °C/modification.

Take “CGACG^MeCTTGCAGC (DNA CGACGCTTGCAGC; DNA, [5mC] at 6, backbone not given here) [ON1]”: the “Tm, DNA target” value in series [1] (setting [10]) turned out to be 64.2 °C. Besides, in series [6] (setting [11]), the “ΔTm, mismatch M = C” value is -16.3 °C; the “ΔTm, mismatch M = G” value was -3.9 °C; the “ΔTm, mismatch M = U” value is -13.7 °C. Further, the “Tm, RNA target M = A” value in series [2] (setting [12]) amounted to 62.8 °C. Also, the “Tm, RNA target” value in [2] (setting [10]) is 62.8 °C. Also, the “time to full digestion by 3′-exonuclease (gel)” value in [9] is ≤ 5 min.

As for 5′-dCGA^MeCp^MeCTCT^MeCp^MeCAGC [ON35], the Tm, DNA target in [3] is 66.6 °C.

Regarding “5′-dCGA^MeCt^MeC^LTCT^MeCt^MeC^LAGC [ON13]”, in [3], the “ΔTm/mod, DNA target” value was -5.1 and the Tm, DNA target was found to be 56.4 °C.

Consider “5′-dCGA^MeCtT^LTCT^MeCtT^LAGC (DNA dCdGdAd[5mC][tz]lTdTdCdTd[5mC][tz]lTdAdGdC; further chemistry not given here) [ON8]”, for which, in series [4], the “Tm, DNA target” value is 48.0 °C and the “ΔTm/mod, DNA target” value is -4.5 °C/modification. Moreover, the “increase in Tm per modification relative to two triazole linkages without 3′-LNA” value in series [5] (ON8 compared with ON9, RNA target) is 5.0 °C/modification. Further, the “drop in Tm per modification compared to unmodified ON7” value in [5] (RNA target) is 0.8 °C/modification. For the same substance, in series [5], the “Tm, RNA target” value amounted to 57.1 °C and the “ΔTm/mod, RNA target” value was -0.8 °C/modification.

CGACG^MeCT^LTGCAGC [ON4]: in [1], the “ΔTm, DNA target (change in Tm relative to the unmodified duplex)” value was 3.3. In addition, in series [1] (pH 7), the Tm, DNA target came out at 67.5 °C. In series [6], the “ΔTm, mismatch M = C” value is reported as -15.2; the “ΔTm, mismatch M = G” value was -4.8; the “ΔTm, mismatch M = U” value is reported as -13.7. Moreover, in [2], the Tm, RNA target M = A came to 68.9 °C and the “ΔTm, RNA target (change in Tm relative to the unmodified duplex)” value came to 6.1. The Tm, RNA target in [2] (pH 7) was found to be 68.9 °C.

In the case of “5′-dCGA^MeCp^MeC^LTCT^MeCp^MeC^LAGC [ON36]”, in series [3], the “ΔTm/mod, DNA target” value is on record as “+2.8” and the Tm, DNA target stood at 72.2 °C.

For the substance 5′-dCGACG^MeCt^MeC^LTGCAGC [ON11], in [7], the “ΔTm, RNA target (relative to the unmodified duplex ON33)” value is reported as -0.5 and the Tm, RNA target is 68.6 °C. Further, in series [8], the “ΔTm, DNA target (relative to the unmodified duplex ON33)” value is on record as -5.1 and the Tm, DNA target worked out at 63.5 °C.

As for “5′-dCGACG^MeC^LtTTGCAGC (DNA dCdGdAdCdGl[5mC][tz]dTdTdGdCdAdGdC; further chemistry not given here) [ON5]”, the “Tm, DNA target” value in series [1] (setting [10]) was found to be 52.7 °C. Also, the “ΔTm, DNA target (change in Tm relative to the unmodified duplex)” value in series [1] (Table 5, relative to ON1) was -11.5 °C. Also, in series [2] (DNA:RNA hybrids or DNA duplexes), the “additional stabilising effect of LNA on the 5′-side of the triazole” value is on record as “no significant additional stabilising effect”. The “Tm, RNA target” value in [2] (setting [10]) came to 55.5 °C. The “ΔTm, RNA target (change in Tm relative to the unmodified duplex)” value in series [2] (Table 5, relative to ON1) was -7.2 °C.

In the case of “CGA^MeCT^LTCT^MeCT^LAGC (DNA dCdGdAd[5mC]lTdTdCdTd[5mC]lTdAdGdC) [ON10]”, in series [4], the “Tm, DNA target” value was 62.2 °C and the “ΔTm/mod, DNA target” value is “+2.5 °C/modification”. In addition, in [5], the “Tm, RNA target” value came out at 70.0 °C and the “ΔTm/mod, RNA target” value was “+5.6 °C/modification”.

On to 5′-d CGACG^MeCp^MeC^LTGCAGC [ON34], for which, in [7], the “ΔTm, RNA target (relative to the unmodified duplex ON33)” value was “+5.6” and the Tm, RNA target was determined as 74.7 °C. In series [8], the “ΔTm, DNA target (relative to the unmodified duplex ON33)” value is “+3.3” and the Tm, DNA target worked out at 72 °C.
